Results published in ChEMBL document CHEMBL2169824, “The many faces of the adamantyl group in drug design” (Eur J Med Chem, 2011).
In brackets after ≈: the same amount, converted by molar mass.

Assays:
[1] = Displacement of [125I]neurotensin from neurotensin receptor 1 in guinea pig brain; design: species or system Cavia porcellus
[2] = Ratio of drug level in liver to blood in human; format: ADME, tissue-based
[3] = Drug elimination in po dosed human assessed as unchanged compound level; format: ADME, organism-based; conditions: in vivo, read-out: Drug excretion
[4] = target: Delta-type opioid receptor (Homo sapiens, UniProt P41143); assay: Antagonist activity at DOR; format: functional
Sequence of Delta-type opioid receptor (P41143 whole entry): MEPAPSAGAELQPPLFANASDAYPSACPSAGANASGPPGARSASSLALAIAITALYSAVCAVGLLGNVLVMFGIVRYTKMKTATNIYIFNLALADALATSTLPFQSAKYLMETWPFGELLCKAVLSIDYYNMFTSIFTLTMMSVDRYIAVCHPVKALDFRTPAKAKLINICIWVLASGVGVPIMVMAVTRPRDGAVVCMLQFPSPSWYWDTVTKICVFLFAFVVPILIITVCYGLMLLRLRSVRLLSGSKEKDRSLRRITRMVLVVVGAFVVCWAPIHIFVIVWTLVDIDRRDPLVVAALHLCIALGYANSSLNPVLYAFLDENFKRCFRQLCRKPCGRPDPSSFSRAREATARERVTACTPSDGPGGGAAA

Mu-type opioid receptor = Mu-type opioid receptor (Homo sapiens, UniProt P35372); assay: Antagonist activity at MOR; format: functional
Sequence of Mu-type opioid receptor (P35372 whole entry): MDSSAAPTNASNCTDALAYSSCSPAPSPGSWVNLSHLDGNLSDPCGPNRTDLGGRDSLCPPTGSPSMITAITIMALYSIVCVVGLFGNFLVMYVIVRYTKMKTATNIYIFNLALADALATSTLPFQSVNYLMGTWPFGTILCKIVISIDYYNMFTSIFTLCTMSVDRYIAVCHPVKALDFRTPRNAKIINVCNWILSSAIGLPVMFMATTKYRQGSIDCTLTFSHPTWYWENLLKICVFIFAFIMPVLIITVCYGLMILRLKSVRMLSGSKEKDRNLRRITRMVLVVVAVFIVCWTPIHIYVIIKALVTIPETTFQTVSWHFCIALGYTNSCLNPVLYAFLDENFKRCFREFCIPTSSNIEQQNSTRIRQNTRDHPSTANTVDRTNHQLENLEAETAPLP

[5] = Solubility in water; format: physicochemical
[6] = Half life in plasma; format: ADME, cell-free
[7] = Drug excretion in human urine assessed as unchanged compound level; format: ADME; conditions: read-out: Drug excretion
Staphylococcus aureus = assay: Antimicrobial activity against methicillin-resistant Staphylococcus aureus; format: functional
Enterococcus faecium = assay: Antimicrobial activity against vancomycin-resistant Enterococcus faecium; format: functional
Carbonic anhydrase 2 = Carbonic anhydrase 2 (Homo sapiens, UniProt P00918); assay: Inhibition of human CA2
Mus musculus = assay: Anticonvulsant activity in mouse at 30 mg/kg; format: functional
[8] = Half life in human plasma; format: ADME, cell-free
HCT-116 = assay: Antitumor activity against human HCT116 cells xenografted in athymic mouse assessed as reduction tumor size at 20 mg/kg, qd; format: functional; design: scale not given: the % may be the effect or the level left
Vitamin D3 receptor = target: T1, Vitamin D3 receptor (Homo sapiens, UniProt P11473); assay: Transactivation of VDR expressed in COS7 cells assessed as reduction in 1,25-dihydroxyvitamin D3-induced transcriptional activity by transient transcription assay; format: cell-based, COS-7
T1 sequence (P11473 whole entry): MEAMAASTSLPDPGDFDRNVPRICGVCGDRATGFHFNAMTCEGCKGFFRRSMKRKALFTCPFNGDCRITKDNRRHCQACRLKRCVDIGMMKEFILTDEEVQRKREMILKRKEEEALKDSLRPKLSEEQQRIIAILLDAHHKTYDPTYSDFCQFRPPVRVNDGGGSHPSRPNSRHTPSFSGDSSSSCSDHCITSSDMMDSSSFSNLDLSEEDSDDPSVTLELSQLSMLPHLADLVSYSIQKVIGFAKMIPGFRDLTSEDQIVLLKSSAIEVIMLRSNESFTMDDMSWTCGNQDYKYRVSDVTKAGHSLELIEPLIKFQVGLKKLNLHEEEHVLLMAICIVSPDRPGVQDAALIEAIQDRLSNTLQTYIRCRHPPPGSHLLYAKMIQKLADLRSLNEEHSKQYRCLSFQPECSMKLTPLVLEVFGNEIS

[9] = Protein binding in plasma; format: ADME, cell-free; conditions: read-out: PPB (converted)
[10] = Inhibition of globotriaosyl ceramide binding to Escherichia coli Verotoxin 1
[11] = Volume of distribution in mouse; format: ADME, organism-based; conditions: in vivo
[12] = system: Mycobacterium tuberculosis; assay: Antimicrobial activity against Mycobacterium tuberculosis H37Rv; format: functional
[13] = target: T2, Mediator of RNA polymerase II transcription subunit 23 (Homo sapiens, UniProt Q9ULK4); assay: Binding affinity to Sur2
T2 sequence (Q9ULK4 whole entry): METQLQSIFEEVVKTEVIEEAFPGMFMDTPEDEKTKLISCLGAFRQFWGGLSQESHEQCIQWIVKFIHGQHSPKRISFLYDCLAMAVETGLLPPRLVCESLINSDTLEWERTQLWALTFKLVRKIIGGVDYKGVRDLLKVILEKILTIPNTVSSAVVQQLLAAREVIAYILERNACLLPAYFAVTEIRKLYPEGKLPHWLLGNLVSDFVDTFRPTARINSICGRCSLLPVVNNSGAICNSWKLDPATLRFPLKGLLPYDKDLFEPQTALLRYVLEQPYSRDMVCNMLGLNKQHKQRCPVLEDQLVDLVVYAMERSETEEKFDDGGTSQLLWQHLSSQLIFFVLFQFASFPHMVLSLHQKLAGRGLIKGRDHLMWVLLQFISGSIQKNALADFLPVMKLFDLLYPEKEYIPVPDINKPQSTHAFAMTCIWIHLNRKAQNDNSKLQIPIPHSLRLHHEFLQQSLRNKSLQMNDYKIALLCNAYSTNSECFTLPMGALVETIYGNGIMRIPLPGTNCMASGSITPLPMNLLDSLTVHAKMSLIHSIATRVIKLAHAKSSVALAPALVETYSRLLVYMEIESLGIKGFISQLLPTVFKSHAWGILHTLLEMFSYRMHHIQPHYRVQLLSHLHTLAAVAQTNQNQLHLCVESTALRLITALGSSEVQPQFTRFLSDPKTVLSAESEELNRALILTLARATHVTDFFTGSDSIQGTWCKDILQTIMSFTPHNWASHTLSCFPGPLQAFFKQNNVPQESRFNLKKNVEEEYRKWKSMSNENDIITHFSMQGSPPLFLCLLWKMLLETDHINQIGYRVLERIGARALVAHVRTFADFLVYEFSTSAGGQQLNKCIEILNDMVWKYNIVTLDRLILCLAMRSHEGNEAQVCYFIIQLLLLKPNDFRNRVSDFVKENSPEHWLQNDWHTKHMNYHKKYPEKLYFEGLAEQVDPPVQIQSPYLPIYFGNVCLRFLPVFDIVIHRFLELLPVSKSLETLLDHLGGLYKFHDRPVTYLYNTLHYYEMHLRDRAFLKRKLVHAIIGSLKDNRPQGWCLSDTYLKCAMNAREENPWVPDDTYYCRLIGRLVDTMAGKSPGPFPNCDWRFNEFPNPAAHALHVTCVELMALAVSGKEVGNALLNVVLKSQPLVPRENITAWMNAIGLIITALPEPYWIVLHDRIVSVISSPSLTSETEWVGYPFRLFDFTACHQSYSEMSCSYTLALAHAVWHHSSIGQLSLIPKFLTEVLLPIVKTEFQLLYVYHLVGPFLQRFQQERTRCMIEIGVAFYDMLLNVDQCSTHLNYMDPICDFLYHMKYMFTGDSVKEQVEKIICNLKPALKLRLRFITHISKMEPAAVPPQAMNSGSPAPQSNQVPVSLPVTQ

[14] = system: T3, Lysosomal acid glucosylceramidase (Homo sapiens), P04062 [N409S]; assay: Inhibition of Beta-glucocerebrosidase N370S mutant in cell based assay
T3 sequence (whole entry): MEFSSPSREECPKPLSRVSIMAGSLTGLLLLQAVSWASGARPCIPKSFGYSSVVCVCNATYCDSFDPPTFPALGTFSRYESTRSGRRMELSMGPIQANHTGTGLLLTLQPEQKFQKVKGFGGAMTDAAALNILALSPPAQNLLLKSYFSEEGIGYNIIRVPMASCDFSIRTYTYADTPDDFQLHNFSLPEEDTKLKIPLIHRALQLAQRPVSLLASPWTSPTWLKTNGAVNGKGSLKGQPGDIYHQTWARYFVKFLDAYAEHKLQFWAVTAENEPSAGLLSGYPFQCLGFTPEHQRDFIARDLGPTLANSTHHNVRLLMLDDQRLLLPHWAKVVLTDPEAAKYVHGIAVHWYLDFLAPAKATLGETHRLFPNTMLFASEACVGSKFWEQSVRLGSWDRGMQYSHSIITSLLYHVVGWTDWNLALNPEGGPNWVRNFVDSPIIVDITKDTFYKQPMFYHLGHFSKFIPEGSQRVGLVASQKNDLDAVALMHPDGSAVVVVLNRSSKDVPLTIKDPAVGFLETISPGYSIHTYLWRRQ

[15] = Inhibition of Beta-glucocerebrosidase G202R mutant in cell based assay

COc1cccc(OC)c1-c1cc(C(=O)NC2(C(=O)O)C3CC4CC(C3)CC2C4)nn1-c1ccnc2cc(Cl)ccc12 (stereo not drawn) [REMINERTANT]
IC50 [1]: 0.99 nM

CN(C)CCOCC(=O)NC12CC3CC(CC(C3)C1)C2 [TROMANTADINE]
Kp [2]: 19 | dose excreted [3]: 30%

Cc1cc(O)cc(C)c1C[C@H](N)C(=O)N1Cc2ccccc2C[C@H]1C(=O)NC12C[C@H]3C[C@@H](C1)C[C@@H](C2)C3
Ki [4]: 1.24 nM | Ki (Mu-type opioid receptor): 85.5 nM

O=C(O)CCCCCCCCCCCNC(=O)NC12CC3CC(CC(C3)C1)C2
solubility [5]: 19 µg/mL (≈ 48.4 µM)

CC(C)NCC(O)COc1ccc(CC(=O)OCCC23CC4CC(CC(C4)C2)C3)cc1 (stereo not drawn) [ADAPROLOL]
half-life [6]: 6.9 min

NC12CC3CC(CC(C3)C1)C2 [AMANTADINE]
dose excreted [7]: 65%

C[C@@]1(CCC(=O)Nc2c(O)ccc(C(=O)O)c2O)C(=O)C=CC23CC4CC(CC(C4)C21)C3 (stereo partly drawn)
MIC (Staphylococcus aureus): 1.3 µg/mL (≈ 2.96 µM) | MIC (Enterococcus faecium): 1.3 µg/mL (≈ 2.96 µM)

CC12C[C@@]34C=CC(=O)[C@@](C)(CCC(=O)Nc5c(O)ccc(C(=O)O)c5O)C3[C@H](CC1C4)O2 (stereo partly drawn) [PLATENSIMYCIN]
MIC (Staphylococcus aureus): 0.2 µg/mL (≈ 0.453 µM) | MIC (Enterococcus faecium): 0.2 µg/mL (≈ 0.453 µM)

NS(=O)(=O)c1nnc(NC(=O)NC23CC4CC(CC(C4)C2)C3)s1
Ki (Carbonic anhydrase 2): 13 nM | Activity (Mus musculus): 47%

CC(N)C12CC3CC(CC(C3)C1)C2 (stereo not drawn) [RIMANTADINE]
half-life [8]: 1440 min

NS(=O)(=O)c1nnc(NC(=O)CC23CC4CC(CC(C4)C2)C3)s1
Activity (Mus musculus): 75%

NS(=O)(=O)c1nnc(NC(=O)OC23CC4CC(CC(C4)C2)C3)s1
Ki (Carbonic anhydrase 2): 10 nM | Activity (Mus musculus): 92%

COC(=O)c1ccc(O)c(NC(=O)COc2ccc(C34CC5CC(CC(C5)C3)C4)cc2)c1
Activity (HCT-116): 53%

C=C1[C@H](O)CC(=C/C=C2\CCC[C@]3(C)[C@@H]([C@H](C)/C=C/C[C@H](O)CC45CC6CC(CC(C6)C4)C5)CC[C@@H]23)C[C@H]1O
IC50 (Vitamin D3 receptor): 3 nM

N#C[C@@H]1C[C@@H]2C[C@@H]2N1C(=O)[C@@H](N)C12CC3CC(CC(O)(C3)C1)C2 [SAXAGLIPTIN ANHYDROUS]
fraction unbound [9]: 0.7

CCCCCCCCCCCCC/C=C/C(O)C(CO[C@@H]1O[C@H](CO)[C@@H](O[C@@H]2O[C@H](CO)[C@H](O[C@H]3O[C@H](CO)[C@H](O)[C@H](O)[C@H]3O)[C@H](O)[C@H]2O)[C@H](O)[C@H]1O)NC(=O)CC12CC3CC(CC(C3)C1)C2 (stereo partly drawn)
IC50 [10]: 10000 nM

CC(C)=CCC/C(C)=C/CNCCNC1C2CC3CC(C2)CC1C3 (stereo not drawn) [SQ109]
Vd [11]: 11.8 L/kg | MIC [12]: 1.56 µM (≈ 0.516 µg/mL)

Cc1ccc(S(=O)(=O)n2ccc3c(OCC(O)CN(CCCCCN)C(=O)N4CCC(C5CCN(C(=O)C67CC8CC(CC(C8)C6)C7)CC5)CC4)cccc32)cc1 (stereo not drawn) [WRENCHNOLOL]
Kd [13]: 1800 nM

O=C(CCCCCN1C[C@H](O)[C@@H](O)[C@H](O)[C@H]1CO)NC12CC3CC(CC(C3)C1)C2
INH [14]: > 1 µM | INH [15]: > 1 µM

CC(=O)N(O)CCCCCNC(=O)CCC(=O)N(O)CCCCCNC(=O)CCC(=O)N(O)CCCCCN [DEFEROXAMINE]
half-life [6]: 5 min
